Laboratory results published in US9862686B2, “N1-sulfonyl-5-fluoropyrimidinone derivatives” (Adama Makhteshim Ltd., priority 2009, dated 2018).
Like-named read-outs stand apart in the source and are kept apart here.

Key:
[1] = test system: Mycosphaerella graminicola; Anamorph: Septoria tritici; Bayer Code SEPTTR; assay: Fungicidal activity: leaf blotch of wheat, protectant and curative treatment of inoculated wheat plants; type: in vivo; details: Zymoseptoria tritici
Protocol: Evaluation of Fungicidal Activity: Leaf Blotch of Wheat (Mycosphaerella graminicola; Anamorph: Septoria tritici; Bayer Code SEPTTR)
Wheat plants (variety Yuma) were grown from seed in a greenhouse in 50% mineral soil/50% soil-less Metro mix until the first leaf was fully emerged, with 7-10 seedlings per pot. These plants were inoculated with an aqueous spore suspension of Septoria tritici either prior to or after fungicide treatments. After inoculation the plants were kept in 100% relative humidity (one day in a dark dew chamber followed by two to three days in a lighted dew chamber) to permit spores to germinate and infect the leaf. The plants were then transferred to a greenhouse for disease to develop.
The following table presents the activity of typical compounds of the present disclosure when evaluated in these experiments. The effectiveness of the test compounds in controlling disease was determined by assessing the severity of disease on treated plants, then converting the severity to percent control based on the level of disease on untreated, inoculated plants.
In each case of Table II the rating scale is as follows: […]

[2] = 24 h, One-Day Protectant (1DP), 100 ppm, wheat plants (variety Yuma), percent control vs untreated inoculated plants, read-out: SEPTTR 100 PPM 1DP (% Disease Control rating)
[3] = 72 h, Three-Day Curative (3DC), 100 ppm, wheat plants (variety Yuma), percent control vs untreated inoculated plants, read-out: SEPTTR 100 PPM 3DC (% Disease Control rating)
[4] = 24 h, read-out: SEPTTR 100 PPM 1DP (% Disease Control rating)
[5] = 72 h, read-out: SEPTTR 100 PPM 3DC (% Disease Control rating)

Compound	melting point	pest or weed control at 100 ppm [1, 2] [%]	pest or weed control at 100 ppm [1, 3] [%]	pest or weed control at 100 ppm [1, 4] [%]	pest or weed control at 100 ppm [1, 5] [%]
COc1ccc(S(=O)(=O)n2cc(F)c(N)nc2=O)cc1 [Cmpd 26]	182.5 °C	76 to 100	76 to 100		
Nc1nc(=O)n(S(=O)(=O)Cc2ccc(Br)cc2)cc1F [Cmpd 19]	156 to 159 °C	76 to 100	76 to 100		
Cn1cnc(S(=O)(=O)n2cc(F)c(N)nc2=O)c1 [Cmpd 11]	235 to 237 °C	26 to 50	26 to 50		
COc1ccc(S(=O)(=O)n2cc(F)c(/N=C/N(C)C)nc2=O)cc1 [Cmpd 5]	188 to 190 °C	76 to 100	76 to 100		
Cc1ccc(C(=O)Nc2nc(=O)n(S(=O)(=O)c3ccc(Cl)cc3)cc2F)cc1 [Cmpd 39]	156 to 158 °C	0 to 25	76 to 100		
COc1ccc(S(=O)(=O)n2cc(F)c(NC(=O)Nc3ccccc3)nc2=O)cc1 [Cmpd 43]	185 to 191 °C	0 to 25	26 to 50		
CS(=O)(=O)c1ccc(S(=O)(=O)n2cc(F)c(N)nc2=O)cc1 [Cmpd 15]	220 to 223 °C	51 to 75	76 to 100		
Cc1cc(S(=O)(=O)n2cc(F)c(N)nc2=O)ccc1Oc1ncc(C(F)(F)F)cc1Cl [Cmpd 22]		76 to 100	76 to 100		
CN(C)/C=N/c1nc(=O)n(S(=O)(=O)c2ccccc2)cc1F [Cmpd 1, N′-(1-benzenesulfonyl-5-fluoro-2-oxo-1,2-dihydro-pyrimidin-4-yl)-N,N-dimethylformamidine]	203 to 204 °C	76 to 100	76 to 100		
O=C(Nc1nc(=O)n(S(=O)(=O)c2ccc(Cl)cc2)cc1F)c1ccc(Cl)cc1 [Cmpd 38, 4-chloro-N-[1-(4-chlorobenzenesulfonyl)-5-fluoro-2-oxo-1,2-dihydropyrimidin-4-yl]benzamideamide]		76 to 100	0 to 25		
Cc1ccc(S(=O)(=O)n2cc(F)c(N)nc2=O)cc1 [Cmpd 25]	208 to 210 °C	76 to 100	76 to 100		
CN(C)/C=N/c1nc(=O)n(S(=O)(=O)c2c(Cl)cccc2Cl)cc1F [Cmpd 29]	207 to 211 °C	76 to 100	76 to 100		
Cc1ccc(CS(=O)(=O)n2cc(F)c(/N=C/N(C)C)nc2=O)cc1 [Cmpd 32]	150 to 152 °C				
O=C(Nc1nc(=O)n(S(=O)(=O)c2ccc(Cl)cc2)cc1F)c1ccccc1 [Cmpd 37]	156 to 159 °C	76 to 100	26 to 50		
CN(C)/C=N/c1nc(=O)n(S(=O)(=O)c2cccs2)cc1F [Cmpd 7]	205 to 207 °C	76 to 100	76 to 100		
O=C(Nc1nc(=O)n(S(=O)(=O)c2ccc(Cl)cc2)cc1F)Oc1ccccc1	192 to 195 °C				
CS(=O)(=O)n1cc(F)c(N)nc1=O [Cmpd 27]	181 to 184 °C	76 to 100	76 to 100		
N#Cc1ccc(S(=O)(=O)n2cc(F)c(N)nc2=O)cc1 [Cmpd 16]	210 °C	51 to 75	76 to 100		
O=C(Nc1nc(=O)n(S(=O)(=O)c2c(Cl)cccc2Cl)cc1F)Oc1ccccc1 [Cmpd 50]	199 to 203 °C			76 to 100	76 to 100
CN(C)/C=N/c1nc(=O)n(S(C)(=O)=O)cc1F [Cmpd 3]	133 to 134 °C	76 to 100	76 to 100		
Nc1nc(=O)n(S(=O)(=O)c2ccc(Cl)cc2Cl)cc1F [Cmpd 13]	229 to 230 °C	76 to 100	76 to 100		

Compound	melting point	pest or weed control at 100 ppm [1, 2] [%]	pest or weed control at 100 ppm [1, 3] [%]	pest or weed control at 100 ppm [1, 4] [%]	pest or weed control at 100 ppm [1, 5] [%]
COc1ccc(S(=O)(=O)n2cc(F)c(NC(=O)Oc3ccccc3)nc2=O)cc1 [Cmpd 49]	138 to 142 °C			0 to 25	76 to 100
CC(=O)Nc1nc(=O)n(S(=O)(=O)c2ccc(Cl)cc2)cc1F [Cmpd 34]	159 to 162 °C	76 to 100	76 to 100		
Nc1nc(=O)n(S(=O)(=O)c2ccc(C(F)(F)F)cc2)cc1F [Cmpd 14]	202 to 204 °C	76 to 100	76 to 100		
CCCS(=O)(=O)n1cc(F)c(/N=C/N(C)C)nc1=O [Cmpd 6]	144 to 145 °C	76 to 100	76 to 100		
CCC(=O)Nc1nc(=O)n(S(=O)(=O)c2ccc(Cl)cc2)cc1F [Cmpd 35]	148 to 154 °C (dec.)	76 to 100	76 to 100		
O=c1nc(NC(=S)Nc2ccccc2)c(F)cn1S(=O)(=O)c1cccs1 [Cmpd 46]	182 to 185 °C	0 to 25	26 to 50		
CN(C)/C=N/c1nc(=O)n(S(=O)(=O)Cc2ccccc2)cc1F [Cmpd 30]	152 to 154 °C				
Nc1nc(=O)n(S(=O)(=O)c2ccc(Cl)c(Cl)c2)cc1F [Cmpd 17]	206 to 207 °C	76 to 100	76 to 100		
CCCS(=O)(=O)n1cc(F)c(N)nc1=O [Cmpd 10]	144 to 146 °C	76 to 100	76 to 100		
Cc1ccc(S(=O)(=O)n2cc(F)c(/N=C/N(C)C)nc2=O)cc1 [Cmpd 4]	199 to 203 °C	76 to 100	76 to 100		
Nc1nc(=O)n(S(=O)(=O)Cc2ccc(Cl)cc2)cc1F [Cmpd 20]	168 to 170 °C				
COc1ccc(S(=O)(=O)n2cc(F)c(NC(=S)Nc3ccccc3)nc2=O)cc1 [Cmpd 45]	190 to 195 °C	26 to 50	51 to 75		
O=C(Nc1ccccc1)Nc1nc(=O)n(S(=O)(=O)c2ccc(Cl)cc2)cc1F [Cmpd 41]	211 to 214 °C				
CN(C)/C=N/c1nc(=O)n(S(=O)(=O)Cc2ccc(Cl)cc2)cc1F [Cmpd 31]	140 to 143 °C				
Nc1nc(=O)n(S(=O)(=O)Cc2ccccc2)cc1F [Cmpd 12]	172 to 174 °C	76 to 100	76 to 100		
O=C(Nc1ccccc1)Nc1nc(=O)n(S(=O)(=O)c2c(Cl)cccc2Cl)cc1F [Cmpd 42]	205 to 210 °C	0 to 25	26 to 50		
Cc1ccc(CS(=O)(=O)n2cc(F)c(N)nc2=O)cc1 [Cmpd 21]	164 to 166 °C				
CN(C)/C=N/c1nc(=O)n(S(=O)(=O)c2cn(C)cn2)cc1F [Cmpd 28, N′-[5-fluoro-1-(1-methyl-1H-imidazole-4-sulfonyl)-2-oxo-1,2-dihydro-pyrimidin-4-yl]-N,N-dimethylformamidine]		26 to 50	51 to 75		
Nc1nc(=O)n(S(=O)(=O)c2ccc(Cl)cc2)cc1F [Cmpd 8, 4-amino-1-(4-chloro-benzenesulfonyl)-5-fluoro-1H-pyrimidin-2-one]		76 to 100	76 to 100		
O=C(Nc1nc(=O)n(S(=O)(=O)c2ccccc2)cc1F)c1ccccc1 [Cmpd 33, N-(1-benzenesulfonyl-5-fluoro-2-oxo-1,2-dihydro-pyrimidin-4-yl)-benzamide]				76 to 100	26 to 50
